In patent US20070219203A1, “Arylalkylamino-substituted quinazoline analogues” (Neurogen Corporation, priority 2004, published 2007):

biological target: T1, human capsaicin receptor (Homo sapiens, UniProt Q8NER1); test: Calcium mobilization assay, antagonist activity (Example 6); type: cell-based; conditions: Table I; 50% decrease in fluorescence response of cells expressing human capsaicin receptor exposed to capsaicin
T1 construct: expressed in transfected cells
Experimental: A cDNA encoding full length human capsaicin receptor (SEQ ID NO:1, 2 or 3 of U.S. Pat. No. 6,482,611) is subcloned in the plasmid pBK-CMV (Stratagene, La Jolla, Calif.) for recombinant expression in mammalian cells.
Human embryonic kidney (HEK293) cells are transfected with the pBK-CMV expression construct encoding the full length human capsaicin receptor using standard methods. The transfected cells are selected for two weeks in media containing G418 (400 μg/ml) to obtain a pool of stably transfected cells. Independent clones are isolated from this pool by limiting dilution to obtain clonal stable cell lines for use in subsequent experiments.
Cells transfected with expression plasmids (as described in Example 4) and thereby expressing human capsaicin receptor are seeded and grown to 70-90% confluency in FALCON black-walled, clear-bottomed 96-well plates (#3904, BECTON-DICKINSON, Franklin Lakes, N.J.). The culture medium is emptied from the 96 well plates and […] calcium sensitive dye (Molecular Probes, Eugene, Oreg.) is added to each well (dye solution: 1 mg […], 440 μL DMSO and 440 μl 20% pluronic acid in DMSO, diluted 1:250 in Krebs-Ringer HEPES (KRH) buffer (25 mM HEPES, 5 mM KCl, 0.96 mM NaH2PO4, 1 mM MgSO4, 2 mM CaCl2, 5 mM glucose, 1 mM probenecid, pH 7.4), 50 μl diluted solution per well). Plates are covered with aluminum foil and incubated at 37° C. for 1-2 hours in an environment containing 5% CO2. After the incubation, the dye is emptied from the plates, and the cells are washed once with KRH buffer, and resuspended in KRH buffer.
To measure the ability of a test compound to agonize or antagonize a calcium mobilization response in cells expressing capsaicin receptors to capsaicin or other vanilloid agonist, the EC50 of the agonist capsaicin is first determined. An additional 20 μl of KRH buffer and 1 μl DMSO is added to each well of cells, prepared as described above. 100 μl capsaicin in KRH buffer is automatically transferred by the FLIPR instrument to each well. Capsaicin-induced calcium mobilization is monitored using either FLUOROSKAN ASCENT (Labsystems; Franklin, Mass.) or FLIPR (fluorometric imaging plate reader system; Molecular Devices, Sunnyvale, Calif.) instruments. Data obtained between 30 and 60 seconds after agonist application are used to generate an 8-point concentration response curve, with final capsaicin concentrations of 1 nM to 3 μM. KALEIDAGRAPH software (Synergy Software, Reading, Pa.) is used to fit the data to the equation: y=a*(1/(1+(b/x)^c)) to determine the 50% excitatory concentration (EC50) for the response. In this equation, y is the maximum fluorescence signal, x is the concentration of the agonist or antagonist (in this case, capsaicin), a is the Emax, b corresponds to the EC50 value and c is the Hill coefficient. Determination of Agonist Activity
Test compounds are dissolved in DMSO, diluted in 20 μl KRH buffer so that the final concentration of test compounds in the assay well is between 1 μM and 5 μM, and added to cells prepared as described above. The 96 well plates containing prepared cells and test compounds are incubated in the dark, at room temperature for 0.5 to 6 hours. It is important that the incubation not continue beyond 6 hours. Just prior to determining the fluorescence response, 100 μl capsaicin in KRH buffer at twice the EC50 concentration determined as described above is automatically added by the FLIPR instrument to each well of the 96 well plate for a final sample volume of 200 μl and a final capsaicin concentration equal to the EC50. The final concentration of test compounds in the assay wells is between 1 μM and 5 μM. […] The concentration of antagonist required to provide a 50% decrease, relative to the response observed in the presence of capsaicin and without antagonist, is the IC50 for the antagonist, and is preferably below 1 micromolar, 100 nanomolar, 10 nanomolar or 1 nanomolar.

T1 sequence (Q8NER1 whole entry): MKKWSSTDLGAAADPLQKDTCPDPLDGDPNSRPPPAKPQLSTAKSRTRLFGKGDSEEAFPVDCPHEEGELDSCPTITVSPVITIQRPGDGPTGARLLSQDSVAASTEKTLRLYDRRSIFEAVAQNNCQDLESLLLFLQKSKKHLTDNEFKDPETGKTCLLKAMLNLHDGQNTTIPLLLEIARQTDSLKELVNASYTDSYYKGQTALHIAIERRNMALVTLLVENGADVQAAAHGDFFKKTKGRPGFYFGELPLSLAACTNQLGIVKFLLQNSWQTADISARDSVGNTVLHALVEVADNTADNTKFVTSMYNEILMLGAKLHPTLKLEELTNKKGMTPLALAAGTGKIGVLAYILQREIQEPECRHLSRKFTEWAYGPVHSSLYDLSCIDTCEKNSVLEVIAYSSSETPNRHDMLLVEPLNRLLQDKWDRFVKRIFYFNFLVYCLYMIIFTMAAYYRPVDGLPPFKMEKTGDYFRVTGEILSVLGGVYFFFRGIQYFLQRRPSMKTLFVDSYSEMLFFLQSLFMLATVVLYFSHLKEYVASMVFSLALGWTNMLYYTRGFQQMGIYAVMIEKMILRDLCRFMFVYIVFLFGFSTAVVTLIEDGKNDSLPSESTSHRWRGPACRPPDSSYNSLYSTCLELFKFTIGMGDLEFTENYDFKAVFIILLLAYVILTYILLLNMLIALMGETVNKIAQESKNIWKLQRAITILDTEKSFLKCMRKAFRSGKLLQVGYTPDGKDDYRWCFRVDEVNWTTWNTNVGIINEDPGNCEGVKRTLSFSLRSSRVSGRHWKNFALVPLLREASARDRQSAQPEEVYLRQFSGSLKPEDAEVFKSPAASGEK

Structure (SMILES)	IC50
CC(C)COCc1nc(NC(=O)Cc2ccc(F)cc2)c2ccc(-c3ncccc3C(F)(F)F)nc2n1 [Compound 59, 2-(4-fluorophenyl)-N-{2-(isobutoxymethyl)-7-[3-(trifluoromethyl)pyridin-2-yl]pyrido[2,3-d]pyrimidin-4-yl}acetamide]	≤ 1 µM
CC(C)COCc1nc(NCC(=O)c2cccc(Cl)c2)c2ccc(-c3ncccc3C(F)(F)F)nc2n1 [Compound 60, 1-(3-chlorophenyl)-2-({2-(isobutoxymethyl)-7-[3-(trifluoromethyl)pyridin-2-yl]pyrido[2,3-d]pyrimidin-4-yl}amino)ethanone]	≤ 1 µM
CC(C)COCc1nc(NC2Cc3ccccc3C2)c2ccc(-c3ncccc3Cl)nc2n1 [Compound 61, 7-(3-chloropyridin-2-yl)-N-(2,3-dihydro-1H-inden-2-yl)-2-(isobutoxymethyl)pyrido[2,3-d]pyrimidin-4-amine]	≤ 1 µM
CCOCc1nc(NC2Cc3ccccc3C2)c2ccc(-c3ncccc3Cl)nc2n1 [Compound 62, 7-(3-chloropyridin-2-yl)-N-(2,3-dihydro-1H-inden-2-yl)-2-(ethoxymethyl)pyrido[2,3-d]pyrimidin-4-amine]	≤ 1 µM

same assay, conditions: Table II; 50% decrease in fluorescence response of cells expressing human capsaicin receptor exposed to capsaicin

Structure (SMILES)	IC50
CC1CCN(Cc2nc(NCCc3ccccc3)c3ccc(-c4ncccc4C(F)(F)F)cc3n2)CC(C)(C)C1 (stereo not shown) [Compound 106, Phenethyl-[7-(3-trifluoromethyl-pyridin-2-yl)-2-(3,3,5-trimethyl-azepan-1-ylmethyl)-quinazolin-4-yl]-amine]	≤ 1 µM
Cc1ccccc1CCNc1nc(CN2CCC(C)CC(C)(C)C2)nc2cc(-c3ncccc3C(F)(F)F)ccc12 (stereo not shown) [Compound 107, (2-o-Tolyl-ethyl)-[7-(3-trifluoromethyl-pyridin-2-yl)-2-(3,3,5-trimethyl-azepan-1-ylmethyl)quinazolin-4-yl]-amine]	≤ 1 µM
Cc1ccccc1CCNc1nc(CN2CCC3(CC2)OCCO3)nc2cc(-c3ncccc3C(F)(F)F)ccc12 [Compound 110, [2-(1,4-Dioxa-8-aza-spiro[4.5]dec-8-ylmethyl)-7-(3-trifluoromethyl-pyridin-2-yl)-quinazolin-4-yl]-(2-o-tolyl-ethyl)-amine]	≤ 1 µM
C=CCN(CC=C)Cc1nc(NCCc2ccccc2)c2ccc(-c3ncccc3C(F)(F)F)cc2n1 [Compound 130, [2-Diallylaminomethyl-7-(3-trifluoromethyl-pyridin-2-yl)-quinazolin-4-yl]-phenethyl-amine]	≤ 1 µM
CCCN(Cc1nc(NCCc2ccccc2C)c2ccc(-c3ncccc3C(F)(F)F)cc2n1)CC1CC1 [Compound 140, [2-[(Cyclopropylmethyl-propyl-amino)-methyl]-7-(3-trifluoromethyl-pyridin-2-yl)-quinazolin-4-yl]-(2-o-tolyl-ethyl)-amine]	≤ 1 µM
CCCCN(CCCC)Cc1nc(NCCc2ccccc2)c2ccc(-c3ncccc3C(F)(F)F)cc2n1 [Compound 145, [2-Dibutylaminomethyl-7-(3-trifluoromethyl-pyridin-2-yl)-quinazolin-4-yl]-phenethyl-amine]	≤ 1 µM
CCCCN(CCCC)Cc1nc(NCCc2ccccc2C)c2ccc(-c3ncccc3C(F)(F)F)cc2n1 [Compound 146]	≤ 1 µM
C=C(C)CN(CC)Cc1nc(NCCc2ccccc2)c2ccc(-c3ncccc3C(F)(F)F)cc2n1 [Compound 154, [2-{[Ethyl-(2-methyl-allyl)-amino]-methyl}-7-(3-trifluoromethyl-pyridin-2-yl)-quinazolin-4-yl]-phenethyl-amine]	≤ 1 µM

Now from value to compound:

IC50	Structure (SMILES)
≤ 1 µM	FC(F)(F)c1cccnc1-c1ccc2c(NCCCc3ccccc3)ncnc2c1 [Compound 63, (3-Phenyl-propyl)-[7-(3-trifluoromethyl-pyridin-2-yl)-quinazolin-4-yl]-amine]
≤ 1 µM	Cc1ccc(CCNc2ncnc3cc(-c4ncccc4C(F)(F)F)ccc23)cc1 [Compound 64, (2-p-Tolyl-ethyl)-[7-(3-trifluoromethyl-pyridin-2-yl)-quinazolin-4-yl]-amine]
≤ 1 µM	Cc1ccccc1CCNc1ncnc2cc(-c3ncccc3C(F)(F)F)ccc12 [Compound 65, (2-o-Tolyl-ethyl)-[7-(3-trifluoromethyl-pyridin-2-yl)-quinazolin-4-yl]-amine]
≤ 1 µM	Cc1cccc(CCNc2ncnc3cc(-c4ncccc4C(F)(F)F)ccc23)c1 [Compound 66, (2-m-Tolyl-ethyl)-[7-(3-trifluoromethyl-pyridin-2-yl)-quinazolin-4-yl]-amine]
≤ 1 µM	CCC(CNc1ncnc2cc(-c3ncccc3C(F)(F)F)ccc12)c1ccccc1 (stereo not shown) [Compound 68, (2-Phenyl-butyl)-[7-(3-trifluoromethyl-pyridin-2-yl)-quinazolin-4-yl]-amine]
≤ 1 µM	CCCC(CNc1ncnc2cc(-c3ncccc3C(F)(F)F)ccc12)c1ccccc1 (stereo not shown) [Compound 69, (2-Phenyl-pentyl)-[7-(3-trifluoromethyl-pyridin-2-yl)-quinazolin-4-yl]-amine]
≤ 1 µM	CCCCC(CNc1ncnc2cc(-c3ncccc3C(F)(F)F)ccc12)c1ccccc1 (stereo not shown) [Compound 70, (2-Phenyl-hexyl)-[7-(3-trifluoromethyl-pyridin-2-yl)-quinazolin-4-yl]-amine]
≤ 1 µM	CC(C)CC(CNc1ncnc2cc(-c3ncccc3C(F)(F)F)ccc12)c1ccccc1 (stereo not shown) [Compound 72, (4-Methyl-2-phenyl-pentyl)-[7-(3-trifluoromethyl-pyridin-2-yl)-quinazolin-4-yl]-amine]
≤ 1 µM	CCCCCC(CNc1ncnc2cc(-c3ncccc3C(F)(F)F)ccc12)c1ccccc1 (stereo not shown) [Compound 73, (2-Phenyl-heptyl)-[7-(3-trifluoromethyl-pyridin-2-yl)-quinazolin-4-yl]-amine]
≤ 1 µM	FC(F)(F)c1cccnc1-c1ccc2c(NC3Cc4ccccc4C3)ncnc2c1 [Compound 76, Indan-2-yl-[7-(3-trifluoromethyl-pyridin-2-yl)-quinazolin-4-yl]-amine]
≤ 1 µM	FC(F)(F)c1cccnc1-c1ccc2c(NC3CCc4ccccc4C3)ncnc2c1 (stereo not shown) [Compound 77, (1,2,3,4-Tetrahydro-naphthalen-2-yl)-[7-(3-trifluoromethyl-pyridin-2-yl)-quinazolin-4-yl]-amine]
≤ 1 µM	FC(F)(F)c1cccnc1-c1ccc2c(NC3CCc4ccccc43)ncnc2c1 (stereo not shown) [Compound 78, Indan-1-yl-[7-(3-trifluoromethyl-pyridin-2-yl)-quinazolin-4-yl]-amine]
≤ 1 µM	FC(F)(F)c1cccnc1-c1ccc2c(N[C@H]3CCCc4ccccc43)ncnc2c1 [Compound 81, (1,2,3,4-Tetrahydro-naphthalen-1-yl)-[7-(3-trifluoromethyl-pyridin-2-yl)-quinazolin-4-yl]-amine]
≤ 1 µM	FC(F)(F)c1cccnc1-c1ccc2c(NCCc3ccccc3)nc(CN3CCSCC3)nc2c1 [Compound 97, Phenethyl-[2-thiomorpholin-4-ylmethyl-7-(3-trifluoromethyl-pyridin-2-yl)-quinazolin-4-yl]-amine]
≤ 1 µM	CC1(C)CCCN(Cc2nc(NCCc3ccccc3)c3ccc(-c4ncccc4C(F)(F)F)cc3n2)C1 [Compound 100, [2(3,3-Dimethyl-piperidin-1-ylmethyl)-7-(3-trifluoromethyl-pyridin-2-yl)-quinazolin-4-yl]-phenethyl-amine]
≤ 1 µM	FC(F)(F)c1cccnc1-c1ccc2c(NCCc3ccccc3)nc(CN3CCCCCCC3)nc2c1 [Compound 103, [2-Azocan-1-ylmethyl-7-(3-trifluoromethyl-pyridin-2-yl)-quinazolin-4-yl]-phenethyl-amine]
